Assay results: article PMC6933938, “Comparative physiological, metabolomic, and transcriptomic analyses reveal developmental stage-dependent effects of cluster bagging on phenolic metabolism in Cabernet Sauvignon grape berries” (BMC Plant Biology, 2019)

Target: T1, VviFLS4 (Vitis vinifera, UniProt Q2PHJ7)
T1 construct: gene FLS4; pET-48b(+), printed as C-terminal 6xHis tag fusion; E. coli BL21(DE3), Ni2+ column; tag removal not mentioned
T1 sequence (Q2PHJ7 1-335): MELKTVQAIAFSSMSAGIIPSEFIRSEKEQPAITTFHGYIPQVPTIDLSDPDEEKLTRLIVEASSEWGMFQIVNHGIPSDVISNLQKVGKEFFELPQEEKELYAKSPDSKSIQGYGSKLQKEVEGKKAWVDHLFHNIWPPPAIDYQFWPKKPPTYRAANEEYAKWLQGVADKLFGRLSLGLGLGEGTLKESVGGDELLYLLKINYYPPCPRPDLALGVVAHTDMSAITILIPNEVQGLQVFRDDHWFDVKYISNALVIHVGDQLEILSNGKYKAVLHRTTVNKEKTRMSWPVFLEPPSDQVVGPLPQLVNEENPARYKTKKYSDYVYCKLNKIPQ
Assay: HPLC-MS product analysis
Type: biochemical
Conditions: converted to kaempferol; 0.5 uM substrate, 10 mM alpha-ketoglutaric acid, 0.25 mM FeSO4, 10 mM ascorbic acid, 100 mM NaH2PO4 pH 6.0, 25 C, 1 h

## O=C1c2c(O)cc(O)cc2O[C@H](c2ccc(O)cc2)[C@H]1O [dihydrokaempferol]
  HPLC-MS product analysis: DHK into kaempferol, and dihydroquercetin (DHQ) into quercetin, respectively
